BindingDB's records for doi:10.1111/cbdd.12843 (Key Laboratory for Neurodegenerative Diseases of Ministry …, 2017)

Target: D(2) dopamine receptor (Homo sapiens, UniProt P14416)
Assay: Dopamine D2 Receptor Activity Assay
Settings: 37 °C
Description: D2 receptor/G protein α16a co-transfected HEK293 cells (from the Shanghai Institute of Materia Medica, Chinese Academy of Sciences) were seeded in 96-wellplates and incubated overnight at 37 °C. The media were then removed, and 40 μL of 10 μM Fluo-4/AM (a calcium fluorescent probe) (Invitrogen Corporation, Carlsbad, CA, USA) was added. The plates were then incubated for 40 min at 37 °C. After the supernatant was discarded and the cells were washed with calcium buffer, 50 μL of calcium buffer containing tested compounds at the dosage range from 0.01 nM to 10 μM was added, and the plates were incubated for 10 min. The fluorescence values at an emission wavelength of 525 nm and an excitation wavelength of 485 nm were detected by the FlexStation II microplate reader (Molecular Devices, San Francisco, CA, USA), starting 15 s after 25 μL of calcium buffer containing 50 nM dopamine (an agonist of the dopamine D2 receptor) (Sigma-Aldrich, Saint Louis, MO,USA) was automatically added by the instrument.

Chain of D(2) dopamine receptor (P14416 whole entry): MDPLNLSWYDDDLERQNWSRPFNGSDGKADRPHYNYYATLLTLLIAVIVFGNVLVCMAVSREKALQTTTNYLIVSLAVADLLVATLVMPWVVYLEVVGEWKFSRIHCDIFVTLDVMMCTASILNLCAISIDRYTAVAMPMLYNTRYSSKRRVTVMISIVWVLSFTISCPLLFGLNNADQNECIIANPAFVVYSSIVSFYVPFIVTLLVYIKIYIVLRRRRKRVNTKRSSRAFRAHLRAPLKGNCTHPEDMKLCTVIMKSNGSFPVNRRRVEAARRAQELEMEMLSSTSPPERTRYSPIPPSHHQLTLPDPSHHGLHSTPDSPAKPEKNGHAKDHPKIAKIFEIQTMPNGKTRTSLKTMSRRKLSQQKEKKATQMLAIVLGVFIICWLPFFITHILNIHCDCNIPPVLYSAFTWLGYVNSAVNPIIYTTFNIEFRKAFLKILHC

Row | SMILES | IC50 [nM]
1 | O=C1C[C@@H](c2ccc(F)cc2)Oc2cc(OCCCCN3CCC(c4noc5cc(F)ccc45)CC3)cc(O)c21 [5-Hydroxy-2-(4-fluorophenyl)-7-(4-(4-(6-fluorobenzo[d]isoxazol-3-yl)piperidin-1-yl)butoxy)chroman-4-one (7e)] | 87.7
2 | COc1ccc([C@@H]2CC(=O)c3c(O)cc(OCCCCN4CCN(c5ccccc5OC)CC4)cc3O2)cc1 [5-Hydroxy-2-(4-methoxyphenyl)-7-(4-(4-(2-methoxyphenyl)piperazin-1-yl)butoxy)chroman-4-one (7a)] | 205
3 | COc1ccc([C@@H]2CC(=O)c3c(O)cc(OCCCN4CCN(c5ccccc5OC)CC4)cc3O2)cc1 [5-Hydroxy-2-(4-methoxyphenyl)-7-(4-(4-(2-methoxyphenyl)piperazin-1-yl)propoxy)chroman-4-one (7f)] | 220
4 | COc1ccc([C@@H]2CC(=O)c3c(O)cc(OCCCCN4CCC(c5noc6cc(F)ccc56)CC4)cc3O2)cc1 [5-Hydroxy-2-(4-methoxyphenyl)-7-(4-(4-(6-fluorobenzo[d]isoxazol-3-yl)piperidin-1-yl)butoxy)chroman-4-one (7d)] | 51.3
5 | COc1ccc([C@@H]2CC(=O)c3c(O)cc(OCCCN4CCC(c5noc6cc(F)ccc56)CC4)cc3O2)cc1 [5-Hydroxy-2-(4-methoxyphenyl)-7-(4-(4-(6-fluorobenzo[d]isoxazol-3-yl)piperidin-1-yl)propoxy)chroman-4-one (7g)] | 116
6 | COc1ccccc1N1CCN(CCCCOc2cc(O)c3c(c2)O[C@H](c2ccc(C)cc2)CC3=O)CC1 [5-Hydroxy-2-(4-methylphenyl)-7-(4-(4-(2-methoxyphenyl)piperazin-1-yl)butoxy)chroman-4-one (7b)] | 346
7 | COc1ccccc1N1CCN(CCCCOc2cc(O)c3c(c2)O[C@H](c2ccc(F)cc2)CC3=O)CC1 [5-Hydroxy-2-(fluorophenyl)-7-(4-(4-(2-methoxyphenyl)piperazin-1-yl)butoxy)chroman-4-one (7c)] | 57.3
